{"source": "paper PMC6233196", "about": "(Nature Communications, 2018)", "key": {"GluN1 ABD": {"system": "GluN1 ABD", "set-up": "method as in PMID 16641235", "details": "cited from earlier work; for Ki: isolated domains"}, "GluN1/GluN3A receptors [1]": {"molecular_target": "T1, GluN1/GluN3A receptors (Rattus norvegicus, UniProt P35439+Q9R1M7)", "T1 sequence (Q9R1M7 24-1135, other chains not shown)": "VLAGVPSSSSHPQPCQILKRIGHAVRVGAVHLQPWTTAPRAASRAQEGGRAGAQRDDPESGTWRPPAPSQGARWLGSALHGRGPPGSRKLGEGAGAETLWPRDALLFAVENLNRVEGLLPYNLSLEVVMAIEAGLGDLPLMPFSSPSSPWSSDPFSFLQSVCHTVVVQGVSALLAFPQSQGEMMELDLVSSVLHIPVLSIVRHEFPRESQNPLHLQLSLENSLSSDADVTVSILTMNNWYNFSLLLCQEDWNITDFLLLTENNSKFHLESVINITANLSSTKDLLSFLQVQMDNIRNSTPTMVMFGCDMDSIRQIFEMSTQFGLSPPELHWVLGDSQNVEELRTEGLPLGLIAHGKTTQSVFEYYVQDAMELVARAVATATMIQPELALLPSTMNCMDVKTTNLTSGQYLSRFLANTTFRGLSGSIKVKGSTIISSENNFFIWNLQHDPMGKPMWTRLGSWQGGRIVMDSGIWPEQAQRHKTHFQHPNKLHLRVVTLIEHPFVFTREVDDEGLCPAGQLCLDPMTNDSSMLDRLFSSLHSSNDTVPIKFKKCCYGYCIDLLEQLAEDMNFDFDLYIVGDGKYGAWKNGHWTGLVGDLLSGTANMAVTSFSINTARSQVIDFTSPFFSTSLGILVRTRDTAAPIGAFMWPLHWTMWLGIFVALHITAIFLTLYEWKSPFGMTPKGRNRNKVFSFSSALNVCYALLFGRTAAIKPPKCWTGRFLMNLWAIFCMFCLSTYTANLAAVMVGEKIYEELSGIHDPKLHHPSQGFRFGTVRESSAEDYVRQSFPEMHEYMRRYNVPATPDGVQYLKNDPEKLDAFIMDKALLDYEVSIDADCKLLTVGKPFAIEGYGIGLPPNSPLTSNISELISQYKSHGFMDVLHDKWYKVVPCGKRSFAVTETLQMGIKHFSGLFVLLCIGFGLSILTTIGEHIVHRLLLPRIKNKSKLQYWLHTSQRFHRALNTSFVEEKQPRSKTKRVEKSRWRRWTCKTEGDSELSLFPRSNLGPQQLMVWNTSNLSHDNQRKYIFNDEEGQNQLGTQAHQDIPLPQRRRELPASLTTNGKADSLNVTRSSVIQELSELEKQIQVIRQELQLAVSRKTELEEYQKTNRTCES", "experiment": "Whole-cell patch-clamp of glycine currents in HEK293 cells expressing wild-type GluN1/GluN3A", "details": "for Peak and steady-state current potentiation compared with CGP-78608: MDL-29951 200 nM, 7-CKA 10 µM, L-689560 1 µM pre-incubated; for Effect of reducing treatment on glycine-evoked responses: 20 min, glycine 100 µM", "protocol": "HEK293 cells were used for heterologous expression of recombinant GluN1/GluN3 receptors studied using whole-cell patch-clamp. […] Recordings were performed 24–48 h following cell transfection. The extracellular solution contained (in mM): 140 NaCl, 2.8 KCl, 1 CaCl2, 10 HEPES and 20 Sucrose (290–300 mOsm), pH adjusted to 7.3 using NaOH. […] Drugs and agonists were applied using a multi-barrel solution exchanger (RSC 200; Bio-logic). Recordings were performed at −60 mV and at room temperature. […] EC50, a and nH were set as free parameters."}, "[2]": {"molecular_target": "T2, GluN1-F484A/GluN3A receptors (Rattus norvegicus, UniProt P35439+Q9R1M7, F484A)", "T2 construct": "while we record from intact (i.e. full length) membrane-imbedded receptors; expressed in transfected cells; host or cells: HEK293 cells", "T2 sequence (Q9R1M7 24-1135, other chains not shown)": "as above", "experiment": "Whole-cell patch-clamp in HEK293 cells, GluN1-F484A mutant", "type": "cell-based", "details": "CGP-78608 500 nM", "description": "(§1) Cells were transfected using polyethylenimine with GluN1, GluN3A and GFP plasmids at a 1:3:1 ratio (0.3, 0.9 and 0.3 ng/µl respectively). Recordings were performed 24–48 h following cell transfection. […] EC50, a and nH were set as free parameters."}, "[3]": {"system": "CA1 pyramidal cells of GluN3A-KO mice", "experiment": "Glycine puffs onto voltage-clamped CA1 pyramidal cells, hippocampal slices of GluN3A-KO mice", "type": "cell-based, mouse", "details": "glycine 10 mM puff", "description": "(§2) Ex-vivo electrophysiological experiments were performed on coronal slices from the brains of juvenile wild-type (WT) and GluN3A-KO mice originating from the same litters (8–12 days old). Slices were prepared as described previously. Briefly, mice were anesthetized with isofluorane before decapitation. After isolation, the portion of the brain containing the hippocampus was placed in bicarbonate-buffered saline (BBS) at 2–5 °C for a few minutes. Slices (300 μm) were then cut using a 7000 smz-2 vibratome (Campden). The slicing procedure was performed in an ice-cold solution containing (in mM): 130 K^+- gluconate, 15 KCl, 0.05 EGTA, 20 Hepes, 25 glucose, 1 CaCl2, and 6 MgCl2 supplemented with DL-APV (50 µM).\n(§3) CA1 neurons were recorded from both the ventral and the dorsal hippocampus. Cells were visualized with a combination of Dodt contrast, and an on-line video contrast enhancement. CA1 cells could be easily identified in the red light with which slices were visualized using a CoolSnap HQ2 CCD camera (Photometrics) run by MetaMorph (Universal Imaging). Whole-cell recordings were performed with an EPC-10 double amplifier (Heka Elektronik) run by PatchMaster (Heka). […] Series resistance was partially compensated (max 65%), whereas liquid junction potentials were not corrected. Recordings were performed at a holding potential of −60 mV."}, "[4]": {"molecular_target": "GluN1-C744S-C798S/GluN3A-C859S-C913S receptors (Rattus norvegicus, UniProt P35439+Q9R1M7, C744S/C798S/C859S/C913S)", "sequence (Q9R1M7 24-1135 C859S/C913S, other chains not shown)": "as the sequence (Q9R1M7 24-1135, other chains not shown) above, with C836S, C890S counted along it", "details": "CNQX 50 µM", "description": "as §1"}, "[5]": {"molecular_target": "T3, GluN1/GluN3A receptors in CA1 pyramidal cells (Mus musculus, UniProt A2AIR5+P35438)", "T3 construct": "from tissue; host or cells: acute hippocampal slices (CA1 pyramidal cells) of P8-P12 wild-type mice", "T3 sequence (A2AIR5 27-1135, other chains not shown)": "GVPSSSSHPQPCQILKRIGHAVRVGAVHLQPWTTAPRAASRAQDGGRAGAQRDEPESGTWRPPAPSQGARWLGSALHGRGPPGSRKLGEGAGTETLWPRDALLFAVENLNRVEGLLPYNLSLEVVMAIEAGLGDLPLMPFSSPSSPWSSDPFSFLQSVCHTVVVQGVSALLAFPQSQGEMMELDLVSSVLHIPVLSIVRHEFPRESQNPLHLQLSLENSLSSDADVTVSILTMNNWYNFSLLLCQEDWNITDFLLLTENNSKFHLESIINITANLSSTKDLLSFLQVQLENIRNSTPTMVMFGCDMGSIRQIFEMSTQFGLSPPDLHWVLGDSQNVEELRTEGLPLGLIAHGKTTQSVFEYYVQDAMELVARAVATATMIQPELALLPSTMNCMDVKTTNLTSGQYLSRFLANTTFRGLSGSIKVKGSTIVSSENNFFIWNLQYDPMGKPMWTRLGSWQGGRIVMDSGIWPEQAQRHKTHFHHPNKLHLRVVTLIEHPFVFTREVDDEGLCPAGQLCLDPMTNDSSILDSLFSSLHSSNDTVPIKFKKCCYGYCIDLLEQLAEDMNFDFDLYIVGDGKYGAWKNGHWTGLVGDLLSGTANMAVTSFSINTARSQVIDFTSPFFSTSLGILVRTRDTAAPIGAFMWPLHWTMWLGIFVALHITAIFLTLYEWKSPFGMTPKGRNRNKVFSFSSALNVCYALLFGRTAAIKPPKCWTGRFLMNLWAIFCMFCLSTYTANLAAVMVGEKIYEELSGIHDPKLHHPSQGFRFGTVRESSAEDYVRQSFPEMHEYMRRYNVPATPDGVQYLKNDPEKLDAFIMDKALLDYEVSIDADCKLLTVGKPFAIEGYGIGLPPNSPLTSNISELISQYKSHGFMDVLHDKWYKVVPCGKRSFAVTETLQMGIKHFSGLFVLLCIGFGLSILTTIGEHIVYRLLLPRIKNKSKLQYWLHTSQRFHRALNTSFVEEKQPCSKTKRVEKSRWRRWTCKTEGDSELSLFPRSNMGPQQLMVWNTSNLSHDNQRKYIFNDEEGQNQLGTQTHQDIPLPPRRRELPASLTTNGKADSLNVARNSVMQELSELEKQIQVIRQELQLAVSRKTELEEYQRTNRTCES", "experiment": "Glycine puffs onto voltage-clamped CA1 pyramidal cells, hippocampal slices of wild-type mice", "type": "cell-based", "description": "as §2, §3"}, "HEK cells": {"system": "HEK cells", "experiment": "Tolerability of reducing agent when patching HEK cells", "quoted_text": "In the current work, TCEP was used on HEK cells and DTE on Xenopus oocytes.\nWhen patching HEK cells, however, we observed that\nAccordingly, we switched to TCEP,\nDTE and TCEP, while both powerful to break disulfide\nbonds, differ in their membrane permeability (DTE can cross membranes but not TCEP)."}, "GluN1 (native receptors)": {"molecular_target": "GluN1 (native receptors)", "details": "read-out: Ki for GluN1; cited from earlier work"}, "GluN1/GluN3A receptors [6]": {"molecular_target": "T1, GluN1/GluN3A receptors", "experiment": "Two-electrode voltage-clamp in Xenopus oocytes expressing wild-type GluN1/GluN3A", "type": "cell-based", "set-up": "while we record from intact (i.e. full length) membrane-imbedded receptors; expressed in transfected cells; host or cells: HEK293 cells", "details": "TCEP 5 mM, 20 min; glycine 100 µM", "description": "Oocytes from Xenopus lævis (Xenopus Express, Rennes, France) were used for heterologous expression of recombinant GluN1/GluN3A receptors studied using two-electrode voltage-clamp (TEVC). TEVC recordings were performed 3–4 days following injection. […] Each oocyte was co-injected with a mixture of GluN1 and GluN3A cDNA at a concentration of 50 ng/µl and at a 1:1 ratio. The standard external solution contained (in mM): 100 NaCl, 2.5 KCl, 0.3 BaCl2, 5 HEPES, 0.01 DTPA (diethylenetriamine-pentaacetic acid), pH 7.3. […]\nEC50, a and nH were set as free parameters."}, "GluN3A ABD": {"molecular_target": "GluN3A ABD", "details": "read-out: Glycine affinity; isolated GluN3A ABD; cited from earlier work"}}, "note": "“Also recorded” adds a separate entry of the source."}
{"smiles": "O=C(Nc1ccccc1)N[C@H]1C[C@H](C(=O)O)Nc2cc(Cl)cc(Cl)c21", "note": "(relative stereo) [L-689560, trans-2-Carboxy-5,7-dichloro-4-phenylaminocarbonylamino-1,2,3,4-tetrahydroquinoline]", "values": [{"measurement": "Selectivity for GluN1 vs GluN3 ABD", "setting": "GluN1 ABD; binding studies on isolated agonist-binding domains", "result": "even better than CGP-78608"}, {"measurement": "Ki", "setting": "GluN1 ABD", "result": 29.3, "unit": "nM"}, {"measurement": "Peak and steady-state current potentiation compared with CGP-78608", "setting": "GluN1/GluN3A receptors [1]; glycine 1 mM", "result": "orders of magnitude lower"}]}
{"smiles": "O=C(O)c1cc(O)c2ccc(Cl)cc2n1", "note": "[7-CKA, 7-Chlorokynureic acid]", "values": [{"measurement": "Ki", "setting": "GluN1 ABD", "result": 2600, "unit": "nM"}, {"measurement": "Peak and steady-state current potentiation compared with CGP-78608", "setting": "GluN1/GluN3A receptors [1]; glycine 1 mM", "result": "orders of magnitude lower"}]}
{"smiles": "C[C@@H](NCc1cc(Br)cc2[nH]c(=O)c(=O)[nH]c12)P(=O)(O)O.Cl", "note": "[CGP-78608, [(1 S)-1-[[(7-Bromo-1,2,3,4-tetrahydro-2,3-dioxo-5-quinoxalinyl)methyl]amino]ethyl]phosphonic acid hydrochloride]", "values": [{"measurement": "Potentiating effect on GluN1-F484A mutant", "setting": "[2]", "result": "insensitive; also recorded: almost completely abolished"}, {"measurement": "Glycine-induced inward current amplitude", "setting": "[3]; bath CGP-78608 1 µM", "result": "5.0 ± 0.6", "unit": "pA"}, {"measurement": "Ki", "setting": "GluN1 ABD", "result": 6.4, "unit": "nM"}]}
{"smiles": "N#Cc1cc2[nH]c(=O)c(=O)[nH]c2cc1[N+](=O)[O-]", "note": "[CNQX, 6-Cyano-7-nitroquinoxaline-2,3-dione]", "values": [{"measurement": "Effect on tail currents following glycine removal", "setting": "[4]; glycine 100 µM", "result": "inhibited the large tail currents"}, {"measurement": "Displacement of holding current", "setting": "[4]; no added glycine", "result": "22.9 ± 8.3", "unit": "pA"}, {"measurement": "Outward displacement of holding current", "setting": "GluN1/GluN3A receptors [1]; CNQX 50 µM, no added glycine", "result": "0.6 ± 0.06", "unit": "pA"}]}
{"smiles": "N[C@H](CO)C(=O)O", "note": "[D-serine]", "values": [{"measurement": "Agonist efficacy relative to glycine", "setting": "GluN1/GluN3A receptors [1]; D-serine up to 500 µM vs glycine 100 µM, CGP-78608 500 nM", "result": "lower efficacy than glycine"}]}
{"smiles": "O=C(O)c1cc(=O)c2c(Cl)cc(Cl)cc2[nH]1", "note": "[DCKA, 5-7-Dichlorokynurenic acid]", "values": [{"measurement": "Glycine-induced current amplitude", "setting": "[5]; bath DCKA 500 µM in presence of CGP-78608, WT", "result": "10.2 ± 2.7", "unit": "pA"}]}
{"smiles": "O[C@H](CS)[C@@H](O)CS", "note": "[DTE, dithioerythritol]", "values": [{"measurement": "Tolerability by HEK cells", "setting": "HEK cells", "result": "could induce cell toxicity"}]}
{"smiles": "N[C@@H](CCC(=O)N[C@@H](CS)C(=O)NCC(=O)O)C(=O)O", "note": "[GSH, reduced glutathione]", "values": [{"measurement": "Effect of reducing treatment on glycine-evoked responses", "setting": "GluN1/GluN3A receptors [1]; GSH 50 mM", "result": "completely modified the current phenotype"}]}
{"smiles": "O=C(O)CCc1c(C(=O)O)[nH]c2cc(Cl)cc(Cl)c12", "note": "[MDL-29951, 2-carboxy-4,6-dichloro-1H-indole-3-propanoic acid]", "values": [{"measurement": "Ki", "setting": "GluN1 (native receptors)", "result": 140, "unit": "nM"}, {"measurement": "Potentiating factors at higher concentration", "setting": "GluN1/GluN3A receptors [1]; MDL-29951 2 µM, glycine 1 mM", "result": "smaller than those observed at 200 nM"}, {"measurement": "Peak and steady-state current potentiation compared with CGP-78608", "setting": "GluN1/GluN3A receptors [1]; glycine 1 mM", "result": "orders of magnitude lower"}]}
{"smiles": "O=C(O)CCP(CCC(=O)O)CCC(=O)O", "note": "[TCEP, Tris(2-carboxyethyl)phosphine]", "values": [{"measurement": "Effect of reducing treatment on glycine-evoked responses", "setting": "GluN1/GluN3A receptors [1]; TCEP 5 mM", "result": "drastic effects"}, {"measurement": "Effect of reducing treatment on glycine-evoked currents", "setting": "GluN1/GluN3A receptors [6]", "result": "currents radically changed"}]}
{"smiles": "NCC(=O)O", "note": "[glycine, Glycine]", "values": [{"measurement": "Glycine-induced inward current amplitude", "setting": "[5]; glycine 10 mM puff, control conditions, WT P8-P12", "result": "9.3 ± 1.4", "unit": "pA"}, {"measurement": "Glycine-induced inward current amplitude", "setting": "[3]; control conditions", "result": "6.0 ± 0.8", "unit": "pA"}, {"measurement": "Kd", "setting": "GluN3A ABD", "result": 40.4, "unit": "nM"}]}
